In patent US12428406B2 (PMV Pharmaceuticals, Inc., priority 2019, dated 2025):

Biological target: T1, p53 Y220C (Homo sapiens, UniProt P04637, Y220C)
T1 construct: The recombinant protein was a truncation mutant containing only amino acids 94-312 of p53; made in house; host or cells: E. coli
Test: In vitro DNA binding activity assay (HTRF / TR-FRET): stabilization of p53 Y220C and increase of its DNA binding activity
Type: biochemical
Settings: recombinant His-tagged p53 Y220C DNA binding domain (aa 94-312), biotin-labeled consensus DNA, incubated at 27° C. or 29° C. for 60 min
How it was run: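 Stabilization of the mutant is inferred from increased binding of His-tagged p53 Y220C to a biotin-labeled consensus DNA, detected by HTRF with europium-streptavidin and APC-anti-His antibody. The concentration giving a 50% rise over compound-free binding is reported as SC150.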

T1 sequence (P04637 94-312, change not shown): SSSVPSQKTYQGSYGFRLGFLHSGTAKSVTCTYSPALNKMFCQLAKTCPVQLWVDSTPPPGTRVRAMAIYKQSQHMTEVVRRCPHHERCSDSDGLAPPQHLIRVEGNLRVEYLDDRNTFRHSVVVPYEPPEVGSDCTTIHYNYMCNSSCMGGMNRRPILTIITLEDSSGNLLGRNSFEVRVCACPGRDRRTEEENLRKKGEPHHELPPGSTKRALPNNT

| SMILES | SC150 (concentration of the compound required to increase the DNA binding activity by 50%) |
| --- | --- |
| CCS(=O)(=O)c1ccc(NCC#Cc2cc3c(N[C@@H]4CCN(C(=O)OC(C)(C)C)C[C@@H]4F)cccc3n2CC(F)(F)F)c(OC)c1 [Compound 922A, tert-butyl (3S,4R)-4-{[2-(3-{[4-(ethanesulfonyl)-2-methoxyphenyl]amino}prop-1-yn-1-yl)-1-(2,2,2-trifluoroethyl)-1H-indol-4-yl]amino}-3-fluoropiperidine-1-carboxylate] | ++ (++ = 0.05 μM ≤ SC150 < 0.1 μM) |
| CCS(=O)(=O)c1ccc(NCC#Cc2cc3c(N[C@H]4CC[C@H](N(C)C)CC4)cccc3n2CC(F)(F)F)c(OC)c1 [Compound 119A, (1R,4R)—N^4-[2-(3-{[4-(ethanesulfonyl)-2-methoxyphenyl]amino}prop-1-yn-1-yl)-1-(2,2,2-trifluoroethyl)-1H-indol-4-yl]-N^1,N^1-dimethylcyclohexane-1,4-diamine] | + (+ = 0 μM ≤ SC150 < 0.05 μM) |
| CN(C)[C@H]1CC[C@H](Nc2cccc3c2cc(C#CCNc2ccc(S(C)(=O)=O)cc2OC(F)(F)F)n3CC(F)(F)F)CC1 [Compound 142A] | + (+ = 0 μM ≤ SC150 < 0.05 μM) |
| CNS(=O)(=O)c1ccc(NCC#Cc2cc3c(N[C@H]4CC[C@H](N(C)C)CC4)cccc3n2CC(F)(F)F)c(OC)c1 [Compound 71A, 3-methoxy-N-methyl-4-{[3-(4-{[(1R,4R)-4-(dimethylamino)cyclohexyl]amino}-1-(2,2,2-trifluoroethyl)-1H-indol-2-yl)prop-2-yn-1-yl]amino}benzene-1-sulfonamide] | + (+ = 0 μM ≤ SC150 < 0.05 μM) |
| COc1cc(C(N)=O)ccc1NCC#Cc1cc2c(N[C@H]3CCN(C)C[C@H]3F)cccc2n1CC(F)(F)F [Compound 801A, 4-{[3-(4-{[(3R,4S)-3-fluoro-1-methylpiperidin-4-yl]amino}-1-(2,2,2-trifluoroethyl)-1H-indol-2-yl)prop-2-yn-1-yl]amino}-3-methoxybenzamide] | + (+ = 0 μM ≤ SC150 < 0.05 μM) |
| COc1cc(S(C)(=O)=O)ccc1NCC#Cc1cc2c(N[C@@H]3CCO[C@@H](C)C3)cccc2n1CC(F)(F)F [Compound 1016A, 2-{3-[(4-methanesulfonyl-2-methoxyphenyl)amino]prop-1-yn-1-yl}-N-[(2S,4R)-2-methyloxan-4-yl]-1-(2,2,2-trifluoroethyl)-1H-indol-4-amine] | + (+ = 0 μM ≤ SC150 < 0.05 μM) |
| COc1cc(S(=O)(=O)NC(C)=O)ccc1NCC#Cc1cc2c(N[C@@H]3CCN(C)C[C@@H]3F)cccc2n1CC(F)(F)F [Compound 837A, N-(4-{[3-(4-{[(3S,4R)-3-fluoro-1-methylpiperidin-4-yl]amino}-1-(2,2,2-trifluoroethyl)-1H-indol-2-yl)prop-2-yn-1-yl]amino}-3-methoxybenzenesulfonyl)acetamide] | + (+ = 0 μM ≤ SC150 < 0.05 μM) |
| COc1cc(S(=O)(=O)Nc2ccon2)ccc1NCC#Cc1cc2c(NC3CCN(C)CC3)cccc2n1CC(F)(F)F [Compound 469A, 3-methoxy-4-[(3-{4-[(1-methylpiperidin-4-yl)amino]-1-(2,2,2-trifluoroethyl)-1H-indol-2-yl}prop-2-yn-1-yl)amino]-N-(1,2-oxazol-3-yl)benzene-1-sulfonamide] | + (+ = 0 μM ≤ SC150 < 0.05 μM) |
| COc1cc(S(C)(=O)=O)ccc1NCC#Cc1cc2c(NC3CCN(C[C@@H](CO)OC)CC3)cccc2n1CC(F)(F)F [Compound 630A, (2S)-3-{4-[(2-{3-[(4-methanesulfonyl-2-methoxyphenyl)amino]prop-1-yn-1-yl}-1-(2,2,2-trifluoroethyl)-1H-indol-4-yl)amino]piperidin-1-yl}-2-methoxypropan-1-ol] | + (+ = 0 μM ≤ SC150 < 0.05 μM) |
| CS(=O)(=O)c1ccc(NCC#Cc2cc3c(N[C@H]4CC[C@H](N5CC6(CCOCC6)C5)CC4)cccc3n2CC(F)(F)F)c(OCF)c1 [Compound 324A, N-((1R,4R)-4-(7-oxa-2-azaspiro[3.5]nonan-2-yl)cyclohexyl)-2-(3-((2-(fluoromethoxy)-4-(methylsulfonyl)phenyl)amino)prop-1-yn-1-yl)-1-(2,2,2-trifluoroethyl)-1H-indol-4-amine] | + (+ = 0 μM ≤ SC150 < 0.05 μM) |
| COc1cc(S(=O)(=O)N2CCN(C)CC2)ccc1NCC#Cc1cc2c(NC3CCS(=O)(=O)CC3)cccc2n1CC(F)(F)F [Compound 1048A, 4-({2-[3-({2-methoxy-4-[(4-methylpiperazin-1-yl)sulfonyl]phenyl}amino)prop-1-yn-1-yl]-1-(2,2,2-trifluoroethyl)-1H-indol-4-yl}amino)-1λ^6-thiane-1,1-dione] | + (+ = 0 μM ≤ SC150 < 0.05 μM) |
| COc1cc(S(C)(=O)=O)ccc1NCC#Cc1cc2c(N[C@H]3CC[C@H](N4CCC5(CCOCC5)CC4)CC3)cccc2n1CC(F)(F)F [Compound 414A, 2-{3-[(4-methane-sulfonyl-2-methoxy-phenyl)amino]prop-1-yn-1-yl}-N-[(1R,4R)-4-{3-oxa-9-azaspiro[5.5]undecan-9-yl}cyclohexyl]-1-(2,2,2-trifluoroethyl)-1H-indol-4-amine] | + (+ = 0 μM ≤ SC150 < 0.05 μM) |
| CS(=O)(=O)c1ccc(NCC#Cc2cc3c(N[C@H]4CC[C@@H](N5CCC6(CC5)COC6)CC4)cccc3n2CC(F)(F)F)c(OCC#N)c1 [Compound 390A, 2-(5-methanesulfonyl-2-{[3-(4-{[(1S,4S)-4-{2-oxa-7-azaspiro[3.5]nonan-7-yl}cyclohexyl]amino}-1-(2,2,2-trifluoroethyl)-1H-indol-2-yl)prop-2-yn-1-yl]amino}phenoxy)acetonitrile] | + (+ = 0 μM ≤ SC150 < 0.05 μM) |
| CN1CC[C@@H](Nc2cccc3c2cc(C#CCNc2ccc(S(C)(=O)=O)cc2OCF)n3CC(F)(F)F)[C@@H](F)C1 [Compound 842A] | + (+ = 0 μM ≤ SC150 < 0.05 μM) |
| CCN(CC)[C@H]1CC[C@H](Nc2cccc3c2cc(C#CCNc2ccc(S(=O)(=O)NC)cc2OC)n3CC(F)(F)F)CC1 [Compound 148A, 3-methoxy-N-methyl-4-{[3-(4-{[(1R,4R)-4-(diethylamino)cyclohexyl]amino}-1-(2,2,2-trifluoroethyl)-1H-indol-2-yl)prop-2-yn-1-yl]amino}benzene-1-sulfonamide] | + (+ = 0 μM ≤ SC150 < 0.05 μM) |
| COc1cc(S(N)(=O)=O)ccc1NCC#Cc1cc2c(N[C@H]3CCNC[C@H]3F)cccc2n1CC(F)(F)F [Compound 846A] | + (+ = 0 μM ≤ SC150 < 0.05 μM) |
| COc1cc(C(=O)NCCN2CCOCC2)ccc1NCC#Cc1cc2c(N[C@@H]3CCN(C)C[C@@H]3F)cccc2n1CC(F)(F)F [Compound 924A, 4-{[3-(4-{[(3S,4R)-3-fluoro-1-methylpiperidin-4-yl]amino}-1-(2,2,2-trifluoroethyl)-1H-indol-2-yl)prop-2-yn-1-yl]amino}-3-methoxy-N-[2-(morpholin-4-yl)ethyl]benzamide] | + (+ = 0 μM ≤ SC150 < 0.05 μM) |
| COc1cc(S(=O)(=O)N2CCN(C)CC2)ccc1NCC#Cc1cc2c(NC3CCN(CC(O)CO)CC3)cccc2n1CC(F)(F)F (stereo not shown) [Compound 559A, 3-[4-({2-[3-({2-methoxy-4-[(4-methylpiperazin-1-yl)sulfonyl]phenyl}amino)prop-1-yn-1-yl]-1-(2,2,2-trifluoroethyl)-1H-indol-4-yl}amino)piperidin-1-yl]propane-1,2-diol] | + (+ = 0 μM ≤ SC150 < 0.05 μM) |
| COc1cc(C(=O)N2CC3(CCOCC3)C2)ccc1NCC#Cc1cc2c(NC3CCN(C)CC3)cccc2n1CC(F)(F)F [Compound 511A, 2-{3-[(2-methoxy-4-{7-oxa-2-azaspiro[3.5]nonane-2-carbonyl}phenyl)amino]prop-1-yn-1-yl}-N-(1-methylpiperidin-4-yl)-1-(2,2,2-trifluoroethyl)-1H-indol-4-amine] | + (+ = 0 μM ≤ SC150 < 0.05 μM) |
| COc1cc(S(=O)(=O)N2CCN(C)CC2)ccc1NCC#Cc1cc2c(NC3CCN(C)CC3)cccc2n1CC(F)(F)F [Compound 485A, 2-[3-({2-methoxy-4-[(4-methylpiperazin-1-yl)sulfonyl]phenyl}amino)prop-1-yn-1-yl]-N-(1-methylpiperidin-4-yl)-1-(2,2,2-trifluoroethyl)-1H-indol-4-amine] | + (+ = 0 μM ≤ SC150 < 0.05 μM) |
| COc1cc(S(=O)(=O)NC2CCOCC2)ccc1NCC#Cc1cc2c(N[C@H]3CC[C@H](N(C)C)CC3)cccc2n1CC(F)(F)F [Compound 49A, 3-methoxy-N-(oxan-4-yl)-4-{[3-(4-{[(1R,4R)-4-(dimethylamino)cyclohexyl]amino}-1-(2,2,2-trifluoroethyl)-1H-indol-2-yl)prop-2-yn-1-yl]amino}benzene-1-sulfonamide] | + (+ = 0 μM ≤ SC150 < 0.05 μM) |
| CCOc1cc(S(C)(=O)=O)ccc1NCC#Cc1cc2c(N[C@H]3CC[C@H](N4CC5(CCOCC5)C4)CC3)cccc2n1CC(F)(F)F [Compound 329A, N-((1R,4R)-4-(7-oxa-2-azaspiro[3.5]nonan-2-yl)cyclohexyl)-2-(3-((2-ethoxy-4-(methylsulfonyl)phenyl)amino)prop-1-yn-1-yl)-1-(2,2,2-trifluoroethyl)-1H-indol-4-amine] | + (+ = 0 μM ≤ SC150 < 0.05 μM) |
